These results are taken from patent publication US20090264433A1, “Compounds, Compositions and Methods Comprising Triazine Derivatives” (Institute for OneWorld Health, priority 2008, published 2009).

Molecules are shown by their SMILES.

The assay deals with T1, CFTR channel in human colonic T84 cells (Homo sapiens, UniProt P13569).
T1 construct: results in the phosphorylation and opening of CFTR anion channels; host or cells: human colonic T84 cells
T1 sequence (P13569 whole entry): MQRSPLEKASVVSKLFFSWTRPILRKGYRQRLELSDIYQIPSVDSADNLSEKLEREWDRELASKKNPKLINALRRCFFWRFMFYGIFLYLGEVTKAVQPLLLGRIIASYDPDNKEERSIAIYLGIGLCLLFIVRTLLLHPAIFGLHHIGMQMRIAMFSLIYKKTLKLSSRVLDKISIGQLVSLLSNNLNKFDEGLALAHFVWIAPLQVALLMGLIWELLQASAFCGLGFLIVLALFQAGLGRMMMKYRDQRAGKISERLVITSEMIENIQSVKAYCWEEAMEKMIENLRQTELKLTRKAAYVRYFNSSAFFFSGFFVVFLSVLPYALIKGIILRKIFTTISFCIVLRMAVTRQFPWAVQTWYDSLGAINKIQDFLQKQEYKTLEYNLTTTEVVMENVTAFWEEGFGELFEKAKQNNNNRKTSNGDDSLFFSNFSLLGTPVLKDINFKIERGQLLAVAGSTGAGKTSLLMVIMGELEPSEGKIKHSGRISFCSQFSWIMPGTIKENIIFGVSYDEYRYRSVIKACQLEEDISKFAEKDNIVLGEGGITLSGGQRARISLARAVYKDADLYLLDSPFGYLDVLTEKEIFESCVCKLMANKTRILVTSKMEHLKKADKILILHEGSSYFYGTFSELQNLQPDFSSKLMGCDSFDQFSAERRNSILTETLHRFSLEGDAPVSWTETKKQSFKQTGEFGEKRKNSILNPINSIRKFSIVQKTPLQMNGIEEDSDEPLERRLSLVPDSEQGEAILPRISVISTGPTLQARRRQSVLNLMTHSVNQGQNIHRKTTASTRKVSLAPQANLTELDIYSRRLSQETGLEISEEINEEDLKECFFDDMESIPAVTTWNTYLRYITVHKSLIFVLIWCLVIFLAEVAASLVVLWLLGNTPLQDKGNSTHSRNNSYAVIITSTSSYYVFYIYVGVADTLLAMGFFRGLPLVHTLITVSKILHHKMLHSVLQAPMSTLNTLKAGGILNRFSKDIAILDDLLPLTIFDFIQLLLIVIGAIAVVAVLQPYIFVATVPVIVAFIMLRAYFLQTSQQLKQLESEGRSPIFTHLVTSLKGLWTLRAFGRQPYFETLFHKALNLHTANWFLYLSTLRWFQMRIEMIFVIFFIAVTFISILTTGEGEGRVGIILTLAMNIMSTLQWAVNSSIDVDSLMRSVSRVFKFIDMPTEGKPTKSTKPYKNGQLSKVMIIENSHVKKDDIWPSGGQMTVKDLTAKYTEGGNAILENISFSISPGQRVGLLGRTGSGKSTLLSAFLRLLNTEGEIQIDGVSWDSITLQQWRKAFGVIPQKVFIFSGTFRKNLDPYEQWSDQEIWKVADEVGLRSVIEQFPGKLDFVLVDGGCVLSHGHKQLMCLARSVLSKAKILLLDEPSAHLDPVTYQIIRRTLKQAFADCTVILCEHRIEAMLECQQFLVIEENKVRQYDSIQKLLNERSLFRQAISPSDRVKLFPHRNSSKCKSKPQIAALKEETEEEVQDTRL
Kind of assay: T84 assay (FLIPR membrane potential dye, forskolin/IBMX-stimulated CFTR). Type of assay: cell-based. The settings on record: average of at least 2 runs unless annotated n = 1. As to the method:
(§1) For example, Human colonic T84 cells can be acquired from the European Collection of Cell Cultures (ECACC) and grown in standard culture conditions as described by the supplier. On the day before assay 25,000 T84 cells per well are plated into standard black walled, clear bottom 384-well assay plates in standard growth medium consisting of DMEM:F12 with 10% FBS and incubated overnight. On the day of the assay the plates are washed using a standard assay buffer (HBSS with 10 mM Hepes) and incubated for 15 minutes in serum free cell culture medium before the addition of a commercially available membrane potential sensitive fluorescent dye (FLIPR Red membrane potential dye, Molecular Devices Corporation). T84 cells are incubated with the FLIPR Red membrane potential dye for 45 minutes in the presence and absence of test compound before being transferred to a commercially available fluorescence imaging plate reader (FLIPR384, Molecular Devices Corporation). Fluorescence levels are monitored continuously every second for 150 seconds; after an initial 10 second baseline, CFTR channel activity is stimulated through the addition of 10 μM forskolin in the presence of 100 μM of the phosphodiesterase inhibitor iso-butyl-methylxanthine (IBMX). Addition of the forskolin leads to the activation of intracellular adenylyl cylase 1, elevating cAMP levels and results in the phosphorylation and opening of CFTR anion channels. CFTR channel opening causes chloride ion efflux and subsequent depolarization of the cells, which is measured by an increase in fluorescence. CFTR inhibitor compounds prevent cell depolarization and the associated increase in fluorescence.
as §1, with “Human colonic” for “For example, Human colonic”, “T84 cells are acquired from” for “T84 cells can be acquired from”, “(ECACC) and are grown in” for “(ECACC) and grown in”
As for `Oc1c(Br)cc(-c2cnc(OCCc3cccc4ccccc34)nn2)cc1Br` [Compound 1, 2,6-dibromo-4-(3-(2-(naphthalen-1-yl)ethoxy)-1,2,4-triazin-6-yl)phenol], it took 0.26 µM to reach half-maximal inhibition (IC50). This counts as sub-micromolar.
For `Oc1c(Br)cc(-c2cnc(OCCc3ccc(Br)cc3)nn2)cc1Br` [Compound 2, 2,6-dibromo-4-(3-(4-bromophenethoxy)-1,2,4-triazin-6-yl)phenol], the IC50 was found to be 0.32 µM.
Regarding `Oc1c(Br)cc(-c2cnc(OCc3ccc(F)c(F)c3)nn2)cc1Br` [Compound 3, 2,6-dibromo-4-(3-(3,4-difluorobenzyloxy)-1,2,4-triazin-6-yl)phenol], the IC50 was found to be 0.48 µM.
As to `Oc1c(Br)cc(-c2cnc(OCc3ccc(F)cc3F)nn2)cc1Br` [Compound 4, 2,6-dibromo-4-(3-(2,4-difluorobenzyloxy)-1,2,4-triazin-6-yl)phenol], 0.54 µM corresponded to half-maximal inhibition (IC50).
In turn, `COc1ccc(Cl)cc1COc1ncc(-c2cc(Br)c(O)c(Br)c2)nn1` [Compound 5, 2,6-dibromo-4-(3-(5-chloro-2-methoxybenzyloxy)-1,2,4-triazin-6-yl)phenol] came in with an IC50 of 0.7 µM.
Regarding `Oc1c(Br)cc(-c2cnc(OCc3ccccc3Br)nn2)cc1Br` [Compound 6, 2,6-dibromo-4-(3-(2-bromobenzyloxy)-1,2,4-triazin-6-yl)phenol], 0.7 µM corresponded to half-maximal inhibition (IC50).
In turn, `Oc1c(Br)cc(-c2cnc(OCc3cccc(Cl)c3)nn2)cc1Br` [Compound 7, 2,6-dibromo-4-(3-(3-chlorobenzyloxy)-1,2,4-triazin-6-yl)phenol] registered an IC50 of 0.72 µM.
On to `Oc1c(Br)cc(-c2cnc(OCc3ccc4ccccc4c3)nn2)cc1Br` [Compound 8, 2,6-dibromo-4-(3-(naphthalen-2-ylmethoxy)-1,2,4-triazin-6-yl)phenol], for which it took 0.72 µM to reach half-maximal inhibition (IC50).
`Oc1c(Br)cc(-c2cnc(OCc3ccc(F)cc3Cl)nn2)cc1Br` [Compound 9, 2,6-dibromo-4-(3-(2-chloro-4-fluorobenzyloxy)-1,2,4-triazin-6-yl)phenol]: the IC50 is 0.77 µM.
Take `Oc1c(Br)cc(-c2cnc(OCCc3ccc(Cl)cc3Cl)nn2)cc1Br` [Compound 10, 2,6-dibromo-4-(3-(2,4-dichlorophenethoxy)-1,2,4-triazin-6-yl)phenol]: it took 0.66 µM to reach half-maximal inhibition (IC50).
Compound `CC(Oc1ncc(-c2cc(Br)c(O)c(Br)c2)nn1)c1ccc(Cl)cc1` (stereo not drawn) [Compound 11, 2,6-dibromo-4-(3-(1-(4-chlorophenyl)ethoxy)-1,2,4-triazin-6-yl)phenol] showed an IC50 of 0.84 µM.
As for `CC(Oc1ncc(-c2cc(Br)c(O)c(Br)c2)nn1)c1cccc(Cl)c1` (stereo not drawn) [Compound 12, 2,6-dibromo-4-(3-(1-(3-chlorophenyl)ethoxy)-1,2,4-triazin-6-yl)phenol], the IC50 was determined as 0.84 µM. This lies in the sub-micromolar range.
In the case of `Oc1c(Br)cc(-c2cnc(OCc3cccc4ccccc34)nn2)cc1Br` [Compound 13, 2,6-dibromo-4-(3-(naphthalen-1-ylmethoxy)-1,2,4-triazin-6-yl)phenol] it was 0.88 µM; in that of `Oc1c(Br)cc(-c2cnc(OCc3ccc(-c4ccccc4)cc3)nn2)cc1Br` [Compound 14, 4-(3-(biphenyl-4-ylmethoxy)-1,2,4-triazin-6-yl)-2,6-dibromophenol], 0.89 µM.
In turn, `Oc1c(Br)cc(-c2cnc(OCc3ccc(Cl)cc3Cl)nn2)cc1Br` [Compound 15, 2,6-dibromo-4-(3-(2,4-dichlorobenzyloxy)-1,2,4-triazin-6-yl)phenol] came in with an IC50 of 0.94 µM.
Compound `Oc1c(Br)cc(-c2cnc(OCc3ccc(C(F)(F)F)cc3)nn2)cc1Br` [Compound 16, 2,6-dibromo-4-(3-(4-(trifluoromethyl)benzyloxy)-1,2,4-triazin-6-yl)phenol] gave an IC50 of 1.07 µM. This IC50 and that of the compound before are within 1.5-fold of each other.
`CN(C)c1cccc(COc2ncc(-c3cc(Br)c(O)c(Br)c3)nn2)c1` [Compound 17, 2,6-dibromo-4-(3-(3-(dimethylamino)benzyloxy)-1,2,4-triazin-6-yl)phenol]: inhibition was half-maximal at 1.17 µM (IC50).
With `Oc1c(Br)cc(-c2cnc(OCc3ccccc3Cl)nn2)cc1Br` [Compound 18, 2,6-dibromo-4-(3-(2-chlorobenzyloxy)-1,2,4-triazin-6-yl)phenol], the 50% inhibitory concentration (IC50) is 1.18 µM.
Under `Oc1c(Br)cc(-c2cnc(OCc3ccccc3)nn2)cc1Br` [Compound 19, 4-(3-(benzyloxy)-1,2,4-triazin-6-yl)-2,6-dibromophenol] stands 1.37 µM; under `Oc1c(Br)cc(-c2cnc(OCc3ccc(Cl)cc3)nn2)cc1Br` [Compound 20, 2,6-dibromo-4-(3-(4-chlorobenzyloxy)-1,2,4-triazin-6-yl)phenol], 0.85 µM; under `Oc1c(Br)cc(-c2cnc(Oc3ccc(Cl)c(Cl)c3)nn2)cc1Br` [Compound 21, 2,6-dibromo-4-(3-(3,4-dichlorophenoxy)-1,2,4-triazin-6-yl)phenol], 2.12 µM.
Compound `Oc1c(Br)cc(-c2cnc(OCc3c(Cl)cc(Cl)cc3Cl)nn2)cc1Br` [Compound 22, 2,6-dibromo-4-(3-(2,4,6-trichlorobenzyloxy)-1,2,4-triazin-6-yl)phenol] had an IC50 of 2.33 µM.
In the case of `Oc1c(Br)cc(-c2cnc(OCc3cccc(Cl)c3Cl)nn2)cc1Br` [Compound 23, 2,6-dibromo-4-(3-(2,3-dichlorobenzyloxy)-1,2,4-triazin-6-yl)phenol] it was 2.7 µM; in that of `Oc1c(Br)cc(-c2cnc(OCc3ccc(Br)cc3)nn2)cc1Br` [Compound 24, 2,6-Dibromo-4-(3-(4-bromobenzyloxy)-1,2,4-triazin-6-yl)phenol], 3.02 µM.
In the case of `Oc1c(Br)cc(-c2cnc(OCc3cccc(Br)c3)nn2)cc1Br` [Compound 25, 2,6-dibromo-4-(3-(3-bromobenzyloxy)-1,2,4-triazin-6-yl)phenol] it was 19.8 µM; in that of `Oc1c(Br)cc(-c2cnc(OCc3cc(Cl)cc(Cl)c3)nn2)cc1Br` [Compound 26, 2,6-dibromo-4-(3-(3,5-dichlorobenzyloxy)-1,2,4-triazin-6-yl)phenol], 0.38 µM.
Under `Oc1c(Br)cc(-c2cnc(OCc3cccc(Oc4ccccc4)c3)nn2)cc1Br` [Compound 27, 2,6-dibromo-4-(3-(3-phenoxybenzyloxy)-1,2,4-triazin-6-yl)phenol] stands 0.56 µM; under `Oc1c(Br)cc(-c2cnc(OCc3ccc(OC(F)(F)F)cc3)nn2)cc1Br` [Compound 28, 2,6-dibromo-4-(3-(4-(trifluoromethoxy)benzyloxy)-1,2,4-triazin-6-yl)phenol], 15.5 µM; under `Cc1cc(Cl)ccc1COc1ncc(-c2cc(Br)c(O)c(Br)c2)nn1` [Compound 29, 2,6-dibromo-4-(3-(4-chloro-2-methylbenzyloxy)-1,2,4-triazin-6-yl)phenol], 1.35 µM.
The compound `Oc1c(Br)cc(-c2cnc(COc3cccc(Cl)c3Cl)nn2)cc1Br` [Compound 30, 2,6-dibromo-4-(3-((2,3-dichlorophenoxy)methyl)-1,2,4-triazin-6-yl)phenol] came in with an IC50 of 9.59 µM.
In the case of `Oc1c(Br)cc(-c2cnc(C(O)(c3ccccc3)c3ccccc3)nn2)cc1Br` [Compound 32, 2,6-dibromo-4-(3-(hydroxydiphenylmethyl)-1,2,4-triazin-6-yl)phenol], inhibition was half-maximal at 4.93 µM (IC50).
`Oc1c(Br)cc(-c2cnc(COc3cccc4ccccc34)nn2)cc1Br` [Compound 33, 2,6-Dibromo-4-(3-((naphthalen-1-yloxy)methyl)-1,2,4-triazin-6-yl)phenol] showed an IC50 of 5.39 µM.
The compound `Cc1ccc(Cl)c(OCc2ncc(-c3cc(Br)c(O)c(Br)c3)nn2)c1` [Compound 34, 2,6-dibromo-4-(3-((2-chloro-5-methylphenoxy)methyl)-1,2,4-triazin-6-yl)phenol] had an IC50 of 11.6 µM.
`CC(C)(c1ccccc1)c1ccc(OCc2ncc(-c3cc(Br)c(O)c(Br)c3)nn2)cc1` [Compound 35, 2,6-dibromo-4-(3-((4-(2-phenylpropan-2-yl)phenoxy)methyl)-1,2,4-triazin-6-yl)phenol] registered an IC50 of 7.31 µM.
As to `Oc1c(Cl)cc(-c2cnc(C(O)(c3ccccc3)c3ccccc3)nn2)cc1Cl` [Compound 36, 2,6-dichloro-4-(3-(hydroxydiphenylmethyl)-1,2,4-triazin-6-yl)phenol], the IC50 came to 7.67 µM.
Under `Oc1c(Cl)cc(-c2cnc(COc3cccc(Cl)c3Cl)nn2)cc1Cl` [Compound 37, 2,6-dichloro-4-(3-((2,3-dichlorophenoxy)methyl)-1,2,4-triazin-6-yl)phenol] stands 8.61 µM.

What is called IC50 is the concentration at which inhibition is half-maximal. A high value points to weaker potency in that assay.
